Assays:
Type in all cases: biochemical
[1] = target: T1, lysosomal (acidic) α-D-mannosidase (Homo sapiens, UniProt O00754); assay: Inhibition of lysosomal (acidic) α-D-mannosidase, fluorigenic 4-methylumbelliferyl glycoside substrate; conditions: for inhibition at 1000 µM: 1 mM inhibitor, 0.5 mM substrate, pH 4.0, mean of 2-4 determinations
T1 construct: Post mortem human liver, which had been stored at -20° C; from tissue; host or cells: post mortem human liver, 37,000 g supernatant; concanavalin A-Sepharose fraction
T1 sequence (O00754 50-1011): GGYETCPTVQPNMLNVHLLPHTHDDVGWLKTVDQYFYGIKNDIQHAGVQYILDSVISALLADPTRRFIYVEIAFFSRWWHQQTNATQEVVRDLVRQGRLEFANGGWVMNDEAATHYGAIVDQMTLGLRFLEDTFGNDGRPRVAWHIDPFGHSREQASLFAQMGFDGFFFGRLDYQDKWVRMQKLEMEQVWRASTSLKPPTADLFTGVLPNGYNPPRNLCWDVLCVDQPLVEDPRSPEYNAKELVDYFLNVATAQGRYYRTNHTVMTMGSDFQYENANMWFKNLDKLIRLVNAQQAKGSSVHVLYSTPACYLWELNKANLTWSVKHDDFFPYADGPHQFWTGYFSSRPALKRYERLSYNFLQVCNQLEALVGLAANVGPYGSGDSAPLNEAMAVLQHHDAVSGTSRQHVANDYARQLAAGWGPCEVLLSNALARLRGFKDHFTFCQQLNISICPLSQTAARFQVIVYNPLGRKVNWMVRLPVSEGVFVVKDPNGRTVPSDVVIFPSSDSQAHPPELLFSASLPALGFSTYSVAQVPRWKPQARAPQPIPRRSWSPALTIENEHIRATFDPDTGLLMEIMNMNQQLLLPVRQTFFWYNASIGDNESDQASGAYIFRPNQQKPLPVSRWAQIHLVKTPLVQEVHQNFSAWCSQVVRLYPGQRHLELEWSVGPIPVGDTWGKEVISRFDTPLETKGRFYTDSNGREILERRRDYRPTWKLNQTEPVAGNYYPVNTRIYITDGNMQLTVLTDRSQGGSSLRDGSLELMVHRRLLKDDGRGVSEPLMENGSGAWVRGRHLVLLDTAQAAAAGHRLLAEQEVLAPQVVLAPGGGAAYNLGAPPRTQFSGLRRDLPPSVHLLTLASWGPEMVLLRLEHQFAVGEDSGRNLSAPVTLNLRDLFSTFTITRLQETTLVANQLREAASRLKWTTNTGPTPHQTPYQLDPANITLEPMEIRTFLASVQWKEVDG
Description: (§1) Post mortem human liver, which had been stored at -20° C. until required was homogenized in deionized water (50%, w/v) in a Potter-Elvehjem homogenizer and then centrifuged at 37,000 g for 30 min in an MSE 18 centrifuge. The resultant supernatant was used as the source of enzymic activities.
(§2) The glycosidase activities in an extract of normal human liver were assayed by using the appropriate fluorigenic 4-methylumbelliferyl glycoside substrate (Koch-Light, Haverhill, Suffolk, U.K.) with a concentration of 0.5 mM at the optimal pH of each enzyme [Burditt et al., Clin. Chim. Acta 140, 201-209 (1980)]. Human liver acidic (lysomal) and neutral (cystosolic) α-D-mannosidases were assayed similarly at their pH-optima, of 4.0 and 6.5, respectively, after separation by affinity chromatography on concanavalin A-Sepharose® (Pharmacia Ltd, Milton Keynes, Bucks, U.K.) [Phillips et al., Biochem. J. 153, 579-587 (1976)]. The residual intermediate (Golgi) α-mannosidase II activity in extracts of fibroblasts from a patient with the lysosomal storage disease, mannosidosis, was assayed at pH 5.75 using the synthetic substrate (Burditt et al, Ibid.). The specificity of the inhibitors was determined by assaying the glycosidases in the presence and absence of a 1 mM solution of each compound. The nature of the inhibition and the value of Ki were determined using the Dixon graphical procedure.
(§3) Enzymic activities were measured in the presence and absence of 1 mM inhibitor. Inhibition (%) was calculated as the fraction of activity lost in the presence of inhibitor. The values are means of two to four independent determinations.

α-L-fucosidase = target: T2, α-L-fucosidase (Homo sapiens, UniProt P04066); assay: Inhibition of α-L-fucosidase in human liver extract; conditions: for inhibition at 1000 µM: 1 mM inhibitor, 0.5 mM substrate, optimal pH, mean of 2-4 determinations
T2 construct: The glycosidase activities in an extract of normal human liver were assayed; from tissue; host or cells: post mortem human liver, 37,000 g supernatant
T2 sequence (P04066 32-466): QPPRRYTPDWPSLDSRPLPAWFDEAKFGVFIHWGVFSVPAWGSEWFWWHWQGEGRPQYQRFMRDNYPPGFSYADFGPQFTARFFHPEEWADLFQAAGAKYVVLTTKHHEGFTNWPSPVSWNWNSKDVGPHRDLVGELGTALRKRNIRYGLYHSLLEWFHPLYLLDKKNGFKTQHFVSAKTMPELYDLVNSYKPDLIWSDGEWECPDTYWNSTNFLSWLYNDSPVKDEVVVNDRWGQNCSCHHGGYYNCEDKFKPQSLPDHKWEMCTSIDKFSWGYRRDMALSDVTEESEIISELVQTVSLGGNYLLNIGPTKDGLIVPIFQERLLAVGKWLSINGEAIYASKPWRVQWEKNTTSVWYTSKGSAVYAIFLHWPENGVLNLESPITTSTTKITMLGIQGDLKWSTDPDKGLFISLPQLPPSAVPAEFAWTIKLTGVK
Description: The fraction of activity lost in the presence of the inhibitor was calculated for each pH; =α-L-fucosidase activity; o=inhibition (%).
as §1, §2, §3

N-acetyl hexosaminidase = assay: Inhibition of N-acetyl hexosaminidase in human liver extract; conditions: 1 mM inhibitor; 0.5 mM substrate; optimal pH; mean of 2-4 determinations
Description: as §1, §2, §3

Compound | inhibition at 1000 µM [1] [%] | inhibition at 1000 µM (α-L-fucosidase) [%] | Inhibition (%) (N-acetyl hexosaminidase) | inhibition of lysosomal α-D-mannosidase (in words) [1] | Ki ([1]; pH optimum of 4.0, Dixon graphical procedure) [µM] | nature of the inhibition (α-L-fucosidase; Dixon graphical procedure) | pH-dependence of inhibition (α-L-fucosidase; FIG. 1) | Ki (α-L-fucosidase; pH 5.5, Dixon graphical procedure) [µM]
CN1C[C@@H](O)[C@@H](O)[C@@H]1[C@@H](O)CO [N-methyl DIA, N-methyl-1,4-dideoxy-1,4-imino-L-allitol] | 13 | 28 | 37 |  |  |  |  | 
OC[C@H](O)[C@@H]1NC[C@@H](O)[C@H]1O [DIA, 1,4-dideoxy-1,4-imino-L-allitol] | 84 | 60 | 42 | good inhibitor | 170 |  |  | 
OC[C@H](O)[C@H]1[C@H](O)[C@H](O)CN1Cc1ccccc1 [N-benzyl DIA, N-benzyl-1,4-dideoxy-1,4-imino-L-allitol] | 3 | 74 | 15 |  |  | competitive | pH-dependent | 50

Reference: US4894388A, “Glycosidase inhibitors and use thereof” (priority 1988, dated 1990)
